Test results as given in ChEMBL document CHEMBL4354881, “Optimization of Potent ATAD2 and CECR2 Bromodomain Inhibitors with an Atypical Binding Mode” (J Med Chem, 2020).
pIC50: −log10 of the molar value.

Legend:
[1] = target: Bromodomain-containing protein 4 (Homo sapiens, UniProt O60885, Y390A); experiment: Displacement of Alexa Fluor 647-labeled ligand from BRD4 BD1 Y390A mutant (1 to 477 residue) (unknown origin) measured after 30 mins by TR-FRET assay
[2] = target: Chromatin remodeling regulator CECR2 (Homo sapiens, UniProt Q9BXF3); experiment: Displacement of Alexa Fluor 647-labeled GSK tracer from FLAG-6His-Tev-fused CECR2 (424 to 543 residue) (unknown origin) measured after 15 mins by TR-FRET assay
Sequence of Chromatin remodeling regulator CECR2 (Q9BXF3 whole entry, the tested form may be a part): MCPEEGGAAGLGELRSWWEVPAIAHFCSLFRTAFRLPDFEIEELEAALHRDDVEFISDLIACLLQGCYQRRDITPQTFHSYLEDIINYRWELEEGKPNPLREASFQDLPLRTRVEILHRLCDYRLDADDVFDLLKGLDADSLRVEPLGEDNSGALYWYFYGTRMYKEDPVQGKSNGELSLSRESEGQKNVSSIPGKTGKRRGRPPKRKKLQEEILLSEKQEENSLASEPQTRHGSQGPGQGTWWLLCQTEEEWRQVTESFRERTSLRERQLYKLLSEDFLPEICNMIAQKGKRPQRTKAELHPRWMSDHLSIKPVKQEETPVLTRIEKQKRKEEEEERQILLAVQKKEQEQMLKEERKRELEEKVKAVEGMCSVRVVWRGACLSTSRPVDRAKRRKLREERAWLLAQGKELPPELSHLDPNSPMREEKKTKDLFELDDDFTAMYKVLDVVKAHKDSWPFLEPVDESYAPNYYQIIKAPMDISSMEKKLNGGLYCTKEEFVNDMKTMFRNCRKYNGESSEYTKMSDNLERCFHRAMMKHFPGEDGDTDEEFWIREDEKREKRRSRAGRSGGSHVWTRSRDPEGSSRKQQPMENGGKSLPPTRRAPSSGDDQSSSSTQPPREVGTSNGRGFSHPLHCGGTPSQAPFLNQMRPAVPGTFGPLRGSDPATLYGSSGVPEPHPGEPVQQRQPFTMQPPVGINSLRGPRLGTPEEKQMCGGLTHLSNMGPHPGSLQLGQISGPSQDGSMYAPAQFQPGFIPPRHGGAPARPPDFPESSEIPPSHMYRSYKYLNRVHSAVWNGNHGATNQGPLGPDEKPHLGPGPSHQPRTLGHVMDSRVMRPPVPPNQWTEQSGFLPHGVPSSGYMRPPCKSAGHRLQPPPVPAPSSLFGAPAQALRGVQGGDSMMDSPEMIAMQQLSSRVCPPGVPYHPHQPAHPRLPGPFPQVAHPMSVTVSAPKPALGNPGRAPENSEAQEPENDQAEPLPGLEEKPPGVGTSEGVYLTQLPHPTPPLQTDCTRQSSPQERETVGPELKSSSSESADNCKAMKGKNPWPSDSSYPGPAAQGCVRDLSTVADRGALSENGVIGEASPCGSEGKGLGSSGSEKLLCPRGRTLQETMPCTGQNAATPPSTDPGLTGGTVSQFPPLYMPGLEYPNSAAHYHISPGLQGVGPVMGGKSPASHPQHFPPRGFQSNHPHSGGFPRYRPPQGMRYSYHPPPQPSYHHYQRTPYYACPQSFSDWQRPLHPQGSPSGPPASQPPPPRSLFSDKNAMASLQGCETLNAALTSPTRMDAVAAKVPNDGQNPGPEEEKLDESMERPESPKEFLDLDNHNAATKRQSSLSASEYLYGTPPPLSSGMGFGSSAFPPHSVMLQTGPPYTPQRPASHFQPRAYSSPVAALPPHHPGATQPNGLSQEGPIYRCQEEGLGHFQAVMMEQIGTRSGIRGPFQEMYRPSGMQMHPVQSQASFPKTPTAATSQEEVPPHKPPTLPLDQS

[3] = target: T1, ATPase family AAA domain-containing protein 2 (Homo sapiens, UniProt Q6PL18); experiment: Displacement of Alexa Fluor 488-labeled ligand from FLAG-6His-Tev-fused ATAD2 (981 to 1121 residue) (unknown origin) measured after 30 mins by TR-FRET assay
T1 sequence (Q6PL18 whole entry): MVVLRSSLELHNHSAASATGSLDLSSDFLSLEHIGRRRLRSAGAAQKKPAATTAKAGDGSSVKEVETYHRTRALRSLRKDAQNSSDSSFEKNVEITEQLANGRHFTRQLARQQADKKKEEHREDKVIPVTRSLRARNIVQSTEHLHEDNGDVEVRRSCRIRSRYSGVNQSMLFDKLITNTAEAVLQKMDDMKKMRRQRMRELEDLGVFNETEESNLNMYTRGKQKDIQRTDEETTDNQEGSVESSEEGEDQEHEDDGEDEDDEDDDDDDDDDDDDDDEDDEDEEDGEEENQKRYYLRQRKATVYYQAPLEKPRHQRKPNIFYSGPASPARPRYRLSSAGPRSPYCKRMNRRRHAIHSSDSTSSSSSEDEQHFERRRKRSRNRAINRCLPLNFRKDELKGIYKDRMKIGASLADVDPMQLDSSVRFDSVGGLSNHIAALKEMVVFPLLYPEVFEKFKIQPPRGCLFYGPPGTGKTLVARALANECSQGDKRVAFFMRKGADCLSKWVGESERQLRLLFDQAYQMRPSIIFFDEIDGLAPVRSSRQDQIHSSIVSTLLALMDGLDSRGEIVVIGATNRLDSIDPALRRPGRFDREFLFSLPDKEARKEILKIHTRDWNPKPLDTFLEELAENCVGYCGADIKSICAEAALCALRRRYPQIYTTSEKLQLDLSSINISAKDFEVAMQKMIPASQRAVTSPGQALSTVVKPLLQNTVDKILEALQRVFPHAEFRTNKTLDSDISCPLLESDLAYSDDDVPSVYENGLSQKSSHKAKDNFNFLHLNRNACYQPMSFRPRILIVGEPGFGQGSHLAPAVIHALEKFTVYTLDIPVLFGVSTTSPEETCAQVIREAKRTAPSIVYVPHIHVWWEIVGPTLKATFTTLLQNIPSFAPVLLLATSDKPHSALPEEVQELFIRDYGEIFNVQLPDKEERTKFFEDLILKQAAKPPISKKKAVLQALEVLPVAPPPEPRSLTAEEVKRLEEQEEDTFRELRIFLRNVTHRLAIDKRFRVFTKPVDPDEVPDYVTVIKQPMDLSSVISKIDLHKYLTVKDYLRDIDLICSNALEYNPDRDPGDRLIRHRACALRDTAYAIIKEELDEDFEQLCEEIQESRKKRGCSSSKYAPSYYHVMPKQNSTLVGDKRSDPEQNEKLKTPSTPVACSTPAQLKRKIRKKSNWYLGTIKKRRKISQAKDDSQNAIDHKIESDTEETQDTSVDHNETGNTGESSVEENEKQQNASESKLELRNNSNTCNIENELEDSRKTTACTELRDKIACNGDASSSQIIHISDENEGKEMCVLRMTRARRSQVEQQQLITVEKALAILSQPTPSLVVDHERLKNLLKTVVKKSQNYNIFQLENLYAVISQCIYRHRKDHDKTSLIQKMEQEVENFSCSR

[4] = Permeability of the compound by artificial lipid membrane-based method; type: ADME; details: not told; read-out: permeability

Structure (SMILES) | pIC50 [1] | pIC50 [2] | pIC50 [3] | Papp [4] [×10⁻⁶ cm/s]
O=C(CN1C(=O)COC1=O)Nc1ccc(Cl)c(S(=O)(=O)N2CCCC2)c1 | < 4.30 | 5.80 | 5.90 | 5.4
CC1(C)CCN(S(=O)(=O)c2cc(NC(=O)CN3C(=O)CNC3=O)ccc2Cl)C1 | < 4.30 | 4.60 | 5.50 | 
Cc1nnn(CC(=O)Nc2ccc(Br)c(S(=O)(=O)N3CC[C@H](C)C3)c2)c1C | < 4.30 | 6.00 | 5.20 | 
C[C@@H]1CN(S(=O)(=O)c2cc(NC(=O)CN3C(=O)NC(C)(C4CC4)C3=O)ccc2Br)C[C@H]1C (relative stereo) | 4.40 | 6.90 | 7.60 | 
C[C@@H]1CCN(S(=O)(=O)c2cc(NC(=O)CN3C(=O)CNC3=O)ccc2Cl)C1 | < 4.30 | 5.30 | 6.00 | 
O=C(CN1C(=O)CCC1=O)Nc1ccc(Cl)c(S(=O)(=O)N2CCCC2)c1 | < 4.30 | 5.40 | 5.90 | 4.2
C[C@H]1CCN(S(=O)(=O)c2cc(NC(=O)Cn3nnc4ccccc43)ccc2Br)C1 | 4.80 | 6.70 | 5.70 | 
C[C@H]1CCN(S(=O)(=O)c2cc(NC(=O)Cc3coc4ccccc34)ccc2Br)C1 | < 4.30 | 5.10 | 5.60 | 
C[C@H]1CCN(S(=O)(=O)c2cc(NC(=O)Cn3nncc3CN(C)C)ccc2Br)C1 | < 4.30 | 7.10 | 5.40 | 
C[C@H]1CCN(S(=O)(=O)c2cc(NC(=O)Cn3nnc4c3CCN(C)C4)ccc2Br)C1 | < 4.30 | 7.30 | 5.70 | 
C[C@H]1CCN(S(=O)(=O)c2cc(NC(=O)Cn3cc(CN(C)C)nn3)ccc2Br)C1 | < 4.30 | 6.60 | 5.90 | 
CC(=O)N1CCc2c(nnn2CC(=O)Nc2ccc(Br)c(S(=O)(=O)N3CC[C@H](C)C3)c2)C1 | < 4.30 | 7.00 | 5.80 | 
O=C(CN1C(=O)CNC1=O)Nc1ccc(Cl)c(S(=O)(=O)N2CCCCC2)c1 | < 4.30 | 4.50 | 5.60 | 
C[C@H]1CCN(S(=O)(=O)c2cc(NC(=O)Cn3c(=O)oc4ccccc43)ccc2Br)C1 | 5.00 | 7.20 | 5.70 | 
O=C(CN1C(=O)CNC1=O)Nc1ccc(Cl)c(S(=O)(=O)N2CCC(C3CC3)C2)c1 (racemic) | < 4.30 | 6.30 | 6.30 | 
CC(=O)Nc1ccc(Cl)c(S(=O)(=O)N2CCCC2)c1 | 3.70 | 4.10 | 4.50 | 27
CN1CCc2c(nnn2CC(=O)Nc2ccc(Br)c(S(=O)(=O)N3CC[C@@H](C4CC4)C3)c2)C1 | 4.60 | 7.40 | 5.50 | 
C[C@@]1(C2CC2)NC(=O)N(CC(=O)Nc2ccc(Br)c(S(=O)(=O)N3CCCC3)c2)C1=O | < 4.30 | 6.40 | 6.60 | 
C[C@H]1CCN(S(=O)(=O)c2cc(NC(=O)Cn3ccnn3)ccc2Br)C1 | < 4.30 | 5.40 | 5.40 | 
CN(C)S(=O)(=O)c1cc(NC(=O)CN2C(=O)CNC2=O)ccc1Cl | 4.40 | 4.10 | 4.90 | 
COCc1cnnn1CC(=O)Nc1ccc(Br)c(S(=O)(=O)N2CC[C@H](C)C2)c1 | 4.30 | 6.60 | 6.00 | 
CC1NC(=O)N(CC(=O)Nc2ccc(Cl)c(S(=O)(=O)N3CCCC3)c2)C1=O (racemic) | < 4.30 | 5.20 | 5.90 | 1.2
CN(C)CC1CCN(S(=O)(=O)c2cc(NC(=O)CN3C(=O)CNC3=O)ccc2Cl)C1 (stereo not given) | < 4.30 | 5.40 | 6.00 | < 0.3

Structure (SMILES) | pIC50 [1] | pIC50 [2] | pIC50 [3] | Papp [4] [×10⁻⁶ cm/s]
CCC1CCN(S(=O)(=O)c2cc(NC(=O)CN3C(=O)CNC3=O)ccc2Cl)C1 (racemic) | < 4.30 | 5.90 | 6.20 | 
CC(C)N1CCc2c(nnn2CC(=O)Nc2ccc(Br)c(S(=O)(=O)N3CC[C@H](C)C3)c2)C1 | 4.30 | 7.50 | 5.70 | 
C[C@H]1CCN(S(=O)(=O)c2cc(NC(=O)Cn3nnc4c3CCNC4)ccc2Br)C1 | 4.80 | 6.60 | 5.60 | 
COCc1cn(CC(=O)Nc2ccc(Br)c(S(=O)(=O)N3CC[C@H](C)C3)c2)nn1 | < 4.30 | 5.80 | 5.60 | 
C[C@H]1CCN(S(=O)(=O)c2cc(NC(=O)Cc3noc4ccccc34)ccc2Br)C1 | 4.60 | 6.60 | 6.00 | 
C[C@@H]1CN(S(=O)(=O)c2cc(NC(=O)CN3C(=O)CNC3=O)ccc2Cl)C[C@H]1C (racemic) | 4.70 | 5.70 | 6.60 | 
CC1CCCN1S(=O)(=O)c1cc(NC(=O)CN2C(=O)CNC2=O)ccc1Cl (racemic) | 4.50 | 5.10 | 5.60 | 
CC1(C2CC2)NC(=O)N(CC(=O)Nc2ccc(Cl)c(S(=O)(=O)N3CCCC3)c2)C1=O (racemic) | < 3.30 | 5.80 | 6.00 | 10
CC1(C)NC(=O)N(CC(=O)Nc2ccc(Cl)c(S(=O)(=O)N3CCCC3)c2)C1=O | < 4.30 | 5.30 | 5.80 | 1.8
O=C(CN1C(=O)CNC1=O)Nc1ccc(Cl)c(S(=O)(=O)N2CCC3(CC3)C2)c1 | < 4.30 | 5.40 | 6.00 | 
CCCc1cnnn1CC(=O)Nc1ccc(Br)c(S(=O)(=O)N2CC[C@H](C)C2)c1 | 5.00 | 7.10 | 5.50 | 
O=C(CN1C(=O)CNC1=O)Nc1ccc(Cl)c(S(=O)(=O)n2ccnc2)c1 | < 4.30 | < 4.00 | < 4.00 | 
C[C@H]1CCN(S(=O)(=O)c2cc(NC(=O)Cn3c(=O)[nH]c4ccccc43)ccc2Br)C1 | < 4.30 | 6.30 | 5.90 | 
C[C@@H]1CN(S(=O)(=O)c2cc(NC(=O)CN3C(=O)CNC3=O)ccc2Cl)C[C@@H]1C | < 4.30 | 4.70 | 5.70 | 
C[C@H]1CCN(S(=O)(=O)c2cc(NC(=O)CN3C(=O)CNC3=O)ccc2Cl)C1 | < 4.30 | 5.50 | 6.10 | 
COCC1CCN(S(=O)(=O)c2cc(NC(=O)CN3C(=O)CNC3=O)ccc2Cl)C1 (racemic) | < 4.30 | 5.40 | 6.00 | 
O=C(CN1C(=O)CNC1=O)Nc1ccc(Cl)c(S(=O)(=O)N2CCCCCC2)c1 | < 4.30 | 4.90 | 5.90 | 
CN1CCc2c(nnn2CC(=O)Nc2ccc(Cl)c(S(=O)(=O)N3CC[C@@H](C4CC4)C3)c2)C1 | 4.40 | 6.90 | 5.20 | 
O=C(CN1C(=O)CNC1=O)Nc1ccc(Cl)c(S(=O)(=O)C2CCCCC2)c1 | < 4.30 | < 4.00 | < 4.00 | 
C[C@H]1CCN(S(=O)(=O)c2cc(NC(=O)CN3C(=O)N[C@](C)(C4CC4)C3=O)ccc2Br)C1 | < 4.30 | 6.90 | 7.00 | 
C[C@H]1CCN(S(=O)(=O)c2cc(NC(=O)Cn3nnc4c3CN(C)CC4)ccc2Br)C1 | < 4.30 | 6.60 | 5.70 | 
CCCc1cn(CC(=O)Nc2ccc(Br)c(S(=O)(=O)N3CC[C@H](C)C3)c2)nn1 | 4.40 | 5.80 | 5.80 | 
CCN1CCc2c(nnn2CC(=O)Nc2ccc(Br)c(S(=O)(=O)N3CC[C@H](C)C3)c2)C1 | 4.50 | 7.30 | 5.60 | 
